{
  "source": "paper PMC12640667",
  "about": "(Chemmedchem, 2025)",
  "key": {"[1]": {"conditions": "cited from earlier work"}, "[2]": {"conditions": "cited from earlier work", "remark": "listed apart in the source"}, "Hb [3]": {"target": "T1, Hb (Homo sapiens, UniProt P69905)", "experiment": "Hb modification", "format": "binding", "conditions": "2 mM; SS blood lysates; percentage fraction of total Hb area"}, "Hb [4]": {"target": "T1, Hb", "experiment": "Time-dependent Hb oxygen equilibrium", "format": "biochemical", "conditions": "at 3 h; 2 mM; normal whole blood, hematocrit 20%, 37 °C"}, "[5]": {"system": "human cytochrome P450 (CYP) enzymes", "experiment": "CYP inhibition panel of seven CYP enzymes, pooled human liver microsomes", "format": "in vitro ADME", "conditions": "CYP1A2, CYP2C8, CYP2C9, CYP2C19, CYP2D6, CYP3A4, CYP2B6; 0.1–100 µM"}, "Hb [6]": {"target": "T1, Hb", "experiment": "Oxygen equilibrium curve", "format": "biochemical", "conditions": "2 mM; SS blood lysates; relative to untreated controls"}},
  "note": "Values joined by “and” are separate entries in the source; they are usually repeats but may differ in a detail not shown here. Equal entries are not always repeated. Where two headings read alike, the source gives them in different places.",
  "data": [
    {"smiles": "O=Cc1ccc(CO)o1", "note": "[5‐HMF, 5‐hydroxymethylfurfural]", "values": [
      {"measurement": "aq. solubility", "setting": "[1]; at 25 °C, ref PubChem CID 237,332", "value": "≈ 400 mg mL^−1"},
      {"measurement": "half‐life", "setting": "[2]", "value": "< 2.2", "unit": "h"},
      {"measurement": "% Hb modification", "setting": "Hb [3]", "value": "33.8 ± 11.7", "unit": "%"},
      {"measurement": "P50 shift", "setting": "Hb [4]", "value": 35, "unit": "%"},
      {"measurement": "inhibition of liver CYP isozymes", "setting": "[5]", "value": "no inhibition"},
      {"measurement": "% P50 shift", "setting": "Hb [6]", "value": "27% and 27.2 ± 4.9%"}
    ]},
    {"smiles": "CC(C)n1nccc1-c1ncccc1COc1cccc(O)c1C=O", "note": "[Voxelotor]", "values": [
      {"measurement": "aq. solubility", "setting": "[1]; in water at 25 °C", "value": "< 100", "unit": "µg/mL"},
      {"measurement": "half‐life", "setting": "[2]", "value": "> 50", "unit": "h"}
    ]}
  ]
}
